Measurements taken from paper PMC9721025, “Pharmacokinetic study of the main components of Tanreqing capsules and Tanreqing injections in beagles by liquid chromatography–tandem mass spectrometry” (Chinese Medicine, 2022).
Read-outs that look alike come from different tables or passages of the source.

Tests used:
[1] = Tanreqing injection, cited from earlier work
[2] = Pharmacokinetics in beagles, multiple-dose regimen (once per day for 7 days) of TRQI or TRQC, plasma LC-MS/MS; assay type: in vivo; details: beagle, dog
Experimental: (§1) 100 μL plasma sample was drawn and transferred to 1.5 mL centrifuge tube prior to 300 μL protein precipitant (3:1 [v/v] methanol/acetonitrile, containing 0.1% formic acid and 100 ng/mL IS) was added, and then the sample was vortex-mixed for 3 min. The mixture was centrifuged at 20,000 ×g for 10 min, and 100 μL supernatant was transferred to the injection vial and analyzed directly by LC–MS/MS.
(§2) This study was carried out in six beagles (three males and three females, 9.0–12.0 kg each), that were purchased from Junda Pet Hospital (Shanghai, China). This experimental protocol was approved by the Experimental Animal Ethics Committee of the Naval Military Medical University (Shanghai, China).
After the end of the single-dose experiment, the dogs in group one were given 0.5 mL/kg injection of TRQI once per day for 7 days following the wash out period, and the dogs in group two were given 0.09 g/kg TRQC once per day for 7 days. After the seventh administration, blood samples were collected at 0, 10, 20, and 40 min and then at 1, 1.5, 2, 2.5, 3, 4, 6, 8, 12, and 24 h (a total of 14 time points) and were processed as described in “Single-dose regimen” section. The resulting plasma samples were used to determine the steady-state plasma concentration of TRQI and TRQC. A crossover study was again carried out in both groups, as described in “Single-dose regimen” section, after a 7-day washing period.
(§3) All data obtained were analyzed using Drug and Statistics (DAS) 2.0 software (Chinese Society of Pharmacology), and a non-compartment analysis was used to calculate plasma pharmacokinetic parameters. The principal components of TRQI and TRQC were compared with an analysis of variance (ANOVA) and/or a two-tailed student-t test.

[3] = Pharmacokinetics in beagles, single-dose regimen of TRQI (i.v.) or TRQC (oral), plasma LC-MS/MS; assay type: in vivo, beagle; details: for AUC(0-t) / Cmax / Tmax / half-life: beagle, dog, plasma; for AUC(0-t): read-out: AUC0–24 h; for Cmax / Tmax / half-life: mean of six beagles
Experimental: as §1, §2
The six healthy beagles were divided into two groups: beagles 1–3 were all male and were assigned to the first group, and beagles 4–6 were all females and assigned to the second group. The two-cycle, crossover study was designed with a 7-day wash out period. For the single-administration process, the dogs in the first group were injected intravenously with 0.5 mL/kg TRQI (one-third of the normal daily dose), and blood samples were collected at 0, 5, 10, 15, 20, 30, and 45 min and then at 1, 2, 4, 6, 8, 12, and 24 h (a total of 14 time points) after injection. For each blood sample, 1 mL of blood was collected from the forelimb vein in heparin-treated tubes. The dogs in the second group were orally administrated 0.09 g/kg TRQC (one-third of the normal daily dose, and blood samples were collected in the same manner at 0, 10, 20, and 40 min and then at 1, 1.5, 2, 2.5, 3, 4, 6, 8, 12, and 24 h (a total of 14 time points). All blood samples were centrifuged at 4000 × g for 5 min, and each supernatant was collected and aliquoted. After a 7-day wash out period, the dogs in each group were administrated the other Tanreqing formulation in a crossover design, and blood samples were collected and processed in the same way.
as §3

[4] = Stability of analytes in dog plasma (QC samples); assay type: in vitro ADME
Experimental: The stock solutions of all analytes were further mixed and diluted with methanol/water (10:90, v/v) solution to prepare the working solutions. […] The QC samples were stored in a refrigerator at – 80 °C until retrieval (see Additional file 1). The stability, which includes short-term stability (6 h at room temperature), long-term stability (− 80 °C for 30 days in the refrigerator), and freeze–thaw stability (three cycles from − 80 °C to room temperature), were assessed using QC samples at three concentration levels in three replicates. […] Similarly, there were no obvious effects on the analysis results of the samples with respect to short-term stability or long-term storage.

[5] = both sexes, iv, TRQI 0.5 mL/kg once per day for 7 days, mean
[6] = both sexes, po, TRQC 0.09 g/kg once per day for 7 days, mean
[7] = both sexes, iv, single i.v. dose of TRQI 0.5 mL/kg
[8] = both sexes, single oral dose of TRQC 0.09 g/kg
[9] = n = 3, high QC: nominal 200 ng/mL baicalin, 1000 ursodeoxycholic acid, 100 chenodeoxycholic acid and chlorogenic acid
[10] = n = 3, low QC: nominal 4 ng/mL baicalin, 20 ursodeoxycholic acid, 2 chenodeoxycholic acid and chlorogenic acid
[11] = n = 3, middle QC: nominal 20 ng/mL baicalin, 100 ursodeoxycholic acid, 10 chenodeoxycholic acid and chlorogenic acid

AUC(0-inf) ([2]; both sexes, iv, 0.5 mL/kg, TRQI 0.5 mL/kg for 7 days, Mean): 5030 ng·h/mL | AUC(0-t) ([2]; both sexes, iv, 0.5 mL/kg, TRQI 0.5 mL/kg for 7 days, Mean, read-out: AUC0–24 h): 4070 ng·h/mL | Cmax at 7 days [2, 5]: 968 ng/mL | half-life at 7 days [2, 5]: 6.25 h | AUC(0-inf) ([2]; both sexes, po, 0.09 g/kg, TRQC 0.09 g/kg for 7 days, Mean): 3710 ng·h/mL | AUC(0-t) ([2]; both sexes, po, 0.09 g/kg, TRQC 0.09 g/kg for 7 days, Mean, read-out: AUC0–24 h): 3430 ng·h/mL | Cmax at 7 days [2, 6]: 521 ng/mL | Tmax at 7 days [2, 6]: 4.72 h | half-life at 7 days [2, 6]: 13.7 h | AUC(0-inf) ([2]; female, iv, 0.5 mL/kg, TRQI 0.5 mL/kg for 7 days, beagle No. 4): 6190 ng·h/mL | AUC(0-t) ([2]; female, iv, 0.5 mL/kg, TRQI 0.5 mL/kg for 7 days, beagle No. 4, read-out: AUC0–24 h): 669 ng·h/mL | AUC(0-inf) ([2]; female, iv, 0.5 mL/kg, TRQI 0.5 mL/kg for 7 days, beagle No. 5): 399 ng·h/mL | AUC(0-t) ([2]; female, iv, 0.5 mL/kg, TRQI 0.5 mL/kg for 7 days, beagle No. 5, read-out: AUC0–24 h): 234 ng·h/mL | AUC(0-inf) ([2]; female, iv, 0.5 mL/kg, TRQI 0.5 mL/kg for 7 days, beagle No. 6): 138 ng·h/mL | AUC(0-t) ([2]; female, iv, 0.5 mL/kg, TRQI 0.5 mL/kg for 7 days, beagle No. 6, read-out: AUC0–24 h): 138 ng·h/mL | AUC(0-inf) ([2]; female, po, 0.09 g/kg, TRQC 0.09 g/kg for 7 days, beagle No. 4): 16800 ng·h/mL | AUC(0-t) ([2]; female, po, 0.09 g/kg, TRQC 0.09 g/kg for 7 days, beagle No. 4, read-out: AUC0–24 h): 16700 ng·h/mL | AUC(0-inf) ([2]; female, po, 0.09 g/kg, TRQC 0.09 g/kg for 7 days, beagle No. 5): 1960 ng·h/mL | AUC(0-t) ([2]; female, po, 0.09 g/kg, TRQC 0.09 g/kg for 7 days, beagle No. 5, read-out: AUC0–24 h): 500 ng·h/mL | AUC(0-inf) ([2]; female, po, 0.09 g/kg, TRQC 0.09 g/kg for 7 days, beagle No. 6): 761 ng·h/mL | AUC(0-t) ([2]; female, po, 0.09 g/kg, TRQC 0.09 g/kg for 7 days, beagle No. 6, read-out: AUC0–24 h): 760 ng·h/mL | AUC(0-inf) ([2]; male, iv, 0.5 mL/kg, TRQI 0.5 mL/kg for 7 days, beagle No. 1): 20000 ng·h/mL | AUC(0-t) ([2]; male, iv, 0.5 mL/kg, TRQI 0.5 mL/kg for 7 days, beagle No. 1, read-out: AUC0–24 h): 20000 ng·h/mL | AUC(0-inf) ([2]; male, iv, 0.5 mL/kg, TRQI 0.5 mL/kg for 7 days, beagle No. 2): 183 ng·h/mL | AUC(0-t) ([2]; male, iv, 0.5 mL/kg, TRQI 0.5 mL/kg for 7 days, beagle No. 2, read-out: AUC0–24 h): 121 ng·h/mL | AUC(0-inf) ([2]; male, iv, 0.5 mL/kg, TRQI 0.5 mL/kg for 7 days, beagle No. 3): 3250 ng·h/mL | AUC(0-t) ([2]; male, iv, 0.5 mL/kg, TRQI 0.5 mL/kg for 7 days, beagle No. 3, read-out: AUC0–24 h): 3240 ng·h/mL | AUC(0-inf) ([2]; male, po, 0.09 g/kg, TRQC 0.09 g/kg for 7 days, beagle No. 1): 231 ng·h/mL | AUC(0-t) ([2]; male, po, 0.09 g/kg, TRQC 0.09 g/kg for 7 days, beagle No. 1, read-out: AUC0–24 h): 195 ng·h/mL | AUC(0-inf) ([2]; male, po, 0.09 g/kg, TRQC 0.09 g/kg for 7 days, beagle No. 2): 1930 ng·h/mL | AUC(0-t) ([2]; male, po, 0.09 g/kg, TRQC 0.09 g/kg for 7 days, beagle No. 2, read-out: AUC0–24 h): 1900 ng·h/mL | AUC(0-inf) ([2]; male, po, 0.09 g/kg, TRQC 0.09 g/kg for 7 days, beagle No. 3): 538 ng·h/mL | AUC(0-t) ([2]; male, po, 0.09 g/kg, TRQC 0.09 g/kg for 7 days, beagle No. 3, read-out: AUC0–24 h): 493 ng·h/mL | time at which oral absorption reached a peak ([3]; TRQC, oral, dogs): ~5 h | AUC(0-t) ([3]; both sexes, iv, 0.5 mL/kg, single TRQI 0.5 mL/kg, Mean): 359 ng·h/mL | Cmax [3, 7]: 120 ng/mL | Tmax [3, 7]: 1.07 h | half-life [3, 7]: 5.67 h | AUC(0-t) ([3]; both sexes, po, 0.09 g/kg, single TRQCs 0.09 g/kg, Mean): 553 ng·h/mL | Cmax [3, 8]: 99.8 ng/mL | Tmax [3, 8]: 7.53 h | half-life [3, 8]: 5.93 h | AUC(0-t) ([3]; female, iv, 0.5 mL/kg, single TRQI 0.5 mL/kg, beagle No 4): 89 ng·h/mL | AUC(0-t) ([3]; female, iv, 0.5 mL/kg, single TRQI 0.5 mL/kg, beagle No 5): 137 ng·h/mL | AUC(0-t) ([3]; female, iv, 0.5 mL/kg, single TRQI 0.5 mL/kg, beagle No 6): 95 ng·h/mL | AUC(0-t) ([3]; female, po, 0.09 g/kg, single TRQCs 0.09 g/kg, beagle No 4): 1330 ng·h/mL | AUC(0-t) ([3]; female, po, 0.09 g/kg, single TRQCs 0.09 g/kg, beagle No 5): 126 ng·h/mL | AUC(0-t) ([3]; female, po, 0.09 g/kg, single TRQCs 0.09 g/kg, beagle No 6): 1080 ng·h/mL | AUC(0-t) ([3]; male, iv, 0.5 mL/kg, single TRQI 0.5 mL/kg, beagle No 1): 1490 ng·h/mL | AUC(0-t) ([3]; male, iv, 0.5 mL/kg, single TRQI 0.5 mL/kg, beagle No 2): 108 ng·h/mL | AUC(0-t) ([3]; male, iv, 0.5 mL/kg, single TRQI 0.5 mL/kg, beagle No 3): 238 ng·h/mL | AUC(0-t) ([3]; male, po, 0.09 g/kg, single TRQCs 0.09 g/kg, beagle No 1): 104 ng·h/mL | AUC(0-t) ([3]; male, po, 0.09 g/kg, single TRQCs 0.09 g/kg, beagle No 2): 257 ng·h/mL | AUC(0-t) ([3]; male, po, 0.09 g/kg, single TRQCs 0.09 g/kg, beagle No 3): 421 ng·h/mL | Freeze-thaw stability (3 cycles) Mean ± S.D. concentration [4, 9]: 95.70 ± 4.66 ng/mL | Long-term stability (30 days at – 80 °C) Mean ± S.D. concentration [4, 9]: 101.23 ± 5.13 ng/mL | Short-term stability (6 h at room temperature) Mean ± S.D concentration [4, 9]: 101.57 ± 0.54 ng/mL | Freeze-thaw stability (3 cycles) Mean ± S.D. concentration [4, 10]: 1.97 ± 0.17 ng/mL | Long-term stability (30 days at – 80 °C) Mean ± S.D. concentration [4, 10]: 1.92 ± 0.22 ng/mL | Short-term stability (6 h at room temperature) Mean ± S.D concentration [4, 10]: 1.77 ± 0.06 ng/mL | Freeze-thaw stability (3 cycles) Mean ± S.D. concentration [4, 11]: 9.37 ± 0.95 ng/mL | Long-term stability (30 days at – 80 °C) Mean ± S.D. concentration [4, 11]: 10.10 ± 0.36 ng/mL | Short-term stability (6 h at room temperature) Mean ± S.D concentration [4, 11]: 9.79 ± 0.78 ng/mL
SMILES: C[C@H](CCC(=O)O)[C@H]1CC[C@H]2[C@@H]3[C@H](O)C[C@@H]4C[C@H](O)CC[C@]4(C)[C@H]3CC[C@]12C [Chenodeoxycholic acid, chenodeoxycholic acid]
t1/2 ([1]; Hu's study): 1.83 h | t1/2 ([1]; another study): 0.55 h
